In one experiment the test system is U-937. Description: Antagonistic activity to inhibit the calcium mobilization response in human U-937 cells. Format: functional, cell-based. On the technique in general: Calcium flux is commonly read through the fluorescence of an indicator in the cells.
Leukotriene B4 receptor 1, sequence (Q15722 whole entry): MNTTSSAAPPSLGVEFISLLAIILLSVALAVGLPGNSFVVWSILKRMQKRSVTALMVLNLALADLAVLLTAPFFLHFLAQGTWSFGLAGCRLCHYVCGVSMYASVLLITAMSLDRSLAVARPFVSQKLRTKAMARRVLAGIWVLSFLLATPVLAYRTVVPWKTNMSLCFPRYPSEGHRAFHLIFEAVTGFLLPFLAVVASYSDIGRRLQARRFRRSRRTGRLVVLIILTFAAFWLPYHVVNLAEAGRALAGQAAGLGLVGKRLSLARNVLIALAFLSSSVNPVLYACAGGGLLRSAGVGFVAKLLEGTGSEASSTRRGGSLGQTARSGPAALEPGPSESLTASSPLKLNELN
Broadly, the IC50 is the midpoint of a concentration-inhibition curve. In the case of `COc1ccc(CCCCCCCCOc2ccc(COc3cccc(C(=O)O)c3)[n+]([O-])c2/C=C/C(=O)O)cc1`, the IC50 is 890 nM. On the same count and under the same terms, the figure for `COc1ccc(CCCCCCCCOc2ccc(C[S+]([O-])c3cccc(CS(=O)(=O)C(F)(F)F)c3)nc2/C=C/C(=O)O)cc1` (configuration not stated) is 550 nM; for `CCCCCCCCCCCCOc1ccc(C[S+]([O-])c2cccc(C(=O)O)c2)nc1/C=C/C(=O)O` (configuration not stated) it is 930 nM. Regarding `CCCCCCCCCCCCOc1ccc(C[S+]([O-])c2ccc(C(=O)O)cc2)nc1/C=C/C(=O)O` (configuration not stated), the IC50 is 1300 nM. The same measure, in the same setting: the figure for `Nc1cccc([S+]([O-])Cc2ccc(OCCCCCCCCc3ccccc3)c(/C=C/C(=O)O)n2)c1` (configuration not stated) is 160 nM. As for `COc1ccc(CCCCCCCCOc2ccc(CSc3cccc(OC)c3)nc2/C=C/C(=O)O)cc1`, the IC50 was 290 nM. `Nc1cccc(SCc2ccc(OCCCCCCCCc3ccc(C(F)(F)F)cc3)c(/C=C/C(=O)O)n2)c1`: the IC50 was 78 nM.

Take `Nc1cccc(SCc2ccc(OCCCCCCCCc3ccccc3)c(/C=C/C(=O)O)n2)c1`: the IC50 amounted to 60 nM. With `CCCCCCCCCCCCOc1ccc(COc2cccc(C(=O)O)c2)nc1/C=C/C(=O)O`, the half-maximal inhibitory concentration (IC50) was found to be 580 nM.

On to `COc1ccc(CCCCCCCCOc2ccc(C[S+]([O-])c3cccc(N)c3)nc2/C=C/C(=O)O)cc1` (configuration not stated), for which the half-maximal inhibitory concentration (IC50) turned out to be 74 nM. Same read-out and setting: in the case of `COc1ccc(CCCCCCCCOc2ccc(CSc3cccc(N(C)C)c3)nc2/C=C/C(=O)O)cc1` it was 460 nM; in that of `COc1ccc(CCCCCCCCOc2ccc(CSc3cccc(NS(=O)(=O)c4ccccc4)c3)nc2/C=C/C(=O)O)cc1`, 240 nM; in that of `CCCCCCCCCCCCOc1ccc(COc2cccc(C(=O)O)c2)[n+]([O-])c1/C=C/C(=O)O`, 1010 nM. For the compound `Nc1cccc([S+]([O-])Cc2ccc(OCCCCCCCCc3ccc(C(F)(F)F)cc3)c(/C=C/C(=O)O)n2)c1` (configuration not stated), the IC50 amounted to 54 nM.

As to `COc1ccc(CCCCCCCCOc2ccc(C[S+]([O-])c3ccccc3)nc2/C=C/C(=O)O)cc1` (configuration not stated), the 50% inhibitory concentration (IC50) turned out to be 280 nM. Consider `COc1ccc(CCCCCCCCOc2ccc(CSc3cccc(N)c3)nc2/C=C/C(=O)O)cc1`, for which the half-inhibitory concentration (IC50) worked out at 54 nM. As to `COc1ccc(CCCCCCCCOc2ccc(C[S+]([O-])c3cccc(OC)c3)nc2/C=C/C(=O)O)cc1` (configuration not stated), the 50% inhibitory concentration (IC50) was 300 nM. Same read-out and setting: the figure for `COc1ccc(CCCCCCCCOc2ccc(CS(=O)(=O)c3cccc(N)c3)nc2/C=C/C(=O)O)cc1` is 150 nM; for `COc1ccc(CCCCCCCCOc2ccc(CSc3cccc(C(=O)O)c3)nc2/C=C/C(=O)O)cc1` it is 390 nM. Same read-out and setting: in the case of `COc1ccc(CCCCCCOc2ccc(CC(O)c3cccc(C(=O)O)c3)nc2/C=C/C(=O)O)cc1` (configuration not stated) it was 4000 nM; in that of `COc1ccc(CCCCCCCCOc2ccc(CSc3cccc(NS(=O)(=O)C(F)(F)F)c3)nc2/C=C/C(=O)O)cc1`, 340 nM; in that of `COc1ccc(CCCCCCCCOc2ccc(CSc3ccccc3)nc2/C=C/C(=O)O)cc1`, 110 nM. Still for that read-out and setting: the figure for `CCCCCCCCCCOc1ccc(CC(O)c2cccc(C(=O)O)c2)nc1/C=C/C(=O)O` (configuration not stated) is 3300 nM; for `COc1ccc(CCCCCCCCOc2ccc(C[S+]([O-])c3cccc(NS(=O)(=O)c4ccccc4)c3)nc2/C=C/C(=O)O)cc1` (configuration not stated) it is 150 nM; for `COc1ccc(CCCCCCCCOc2ccc(C[S+]([O-])c3cccc(N(C)C)c3)nc2/C=C/C(=O)O)cc1` (configuration not stated) it is 820 nM. Consider `CCCCCCCCCCCCOc1ccc(CS(=O)(=O)c2cccc(C(=O)O)c2)nc1/C=C/C(=O)O`, for which the IC50 was found to be 1060 nM. The same measure, in the same setting: the figure for `CCCCCCCCCCOc1ccc(CC(O)c2cccc(C(=O)O)c2)nc1CCC(=O)O` (configuration not stated) is 3400 nM. On the same count and under the same terms, in the case of `COc1ccc(CCCCCCCCOc2ccc(C[S+]([O-])c3cccc(C(=O)O)c3)nc2/C=C/C(=O)O)cc1` (configuration not stated) it was 1100 nM. Still for that read-out and setting: the figure for `CCCCCCCCCCCCOc1ccc(C[S+]([O-])c2ccccc2C(=O)O)nc1/C=C/C(=O)O` (configuration not stated) is 1500 nM; for `Nc1cccc([S+]([O-])Cc2ccc(OCCCCCCCCc3ccc(F)cc3)c(/C=C/C(=O)O)n2)c1` (configuration not stated) it is 110 nM; for `COc1ccc(CCCCCCCCOc2ccc(CSc3cccc(NC(=O)C(=O)O)c3)nc2/C=C/C(=O)O)cc1` it is 480 nM.

The next experiment has as its target Leukotriene B4 receptor 1 (Homo sapiens, UniProt Q15722). Description: Binding affinity of [3H]LTB4 to receptors on intact human polymorphonuclear leukocytes.
As usually defined, the Ki is a dissociation constant, usually derived from enzyme kinetics or from competition with a known ligand. A lower Ki goes with higher affinity. Regarding `COc1ccc(CCCCCCCCOc2ccc(COc3cccc(C(=O)O)c3)[n+]([O-])c2/C=C/C(=O)O)cc1`, the inhibition constant (Ki) is 150 nM. On the same count and under the same terms, in the case of `COc1ccc(CCCCCCCCOc2ccc(C[S+]([O-])c3cccc(CS(=O)(=O)C(F)(F)F)c3)nc2/C=C/C(=O)O)cc1` (configuration not stated) it was 225 nM. As for `CCCCCCCCCCCCOc1ccc(C[S+]([O-])c2cccc(C(=O)O)c2)nc1/C=C/C(=O)O` (configuration not stated), affinity was put at a Ki of 129 nM. `CCCCCCCCCCCCOc1ccc(C[S+]([O-])c2ccc(C(=O)O)cc2)nc1/C=C/C(=O)O` (configuration not stated): the affinity corresponds to a Ki of 252 nM. The same measure, in the same setting: the figure for `Nc1cccc([S+]([O-])Cc2ccc(OCCCCCCCCc3ccccc3)c(/C=C/C(=O)O)n2)c1` (configuration not stated) is 11 nM.

`COc1ccc(CCCCCCCCOc2ccc(CSc3cccc(OC)c3)nc2/C=C/C(=O)O)cc1` yielded a Ki of 192 nM. The same measure, in the same setting: in the case of `Nc1cccc(SCc2ccc(OCCCCCCCCc3ccc(C(F)(F)F)cc3)c(/C=C/C(=O)O)n2)c1` it was 43 nM. On the same count and under the same terms, the figure for `Nc1cccc(SCc2ccc(OCCCCCCCCc3ccccc3)c(/C=C/C(=O)O)n2)c1` is 36 nM; for `CCCCCCCCCCCCOc1ccc(COc2cccc(C(=O)O)c2)nc1/C=C/C(=O)O` it is 1130 nM; for `COc1ccc(CCCCCCCCOc2ccc(C[S+]([O-])c3cccc(N)c3)nc2/C=C/C(=O)O)cc1` (configuration not stated) it is 4.7 nM. Turning to `COc1ccc(CCCCCCCCOc2ccc(CSc3cccc(N(C)C)c3)nc2/C=C/C(=O)O)cc1`, the Ki is 789 nM. Take `CCCCCCCCC(O)/C=C/c1cccc(CC(O)c2cccc(C(=O)O)c2)n1` (configuration not stated): the Ki came out at 1 nM. In turn, `COc1ccc(CCCCCCCCOc2ccc(CSc3cccc(NS(=O)(=O)c4ccccc4)c3)nc2/C=C/C(=O)O)cc1` returned a Ki of 609 nM.

As to `CCCCCCCCCCCCOc1ccc(COc2cccc(C(=O)O)c2)[n+]([O-])c1/C=C/C(=O)O`, the affinity corresponds to a Ki of 338 nM.

The compound `Nc1cccc([S+]([O-])Cc2ccc(OCCCCCCCCc3ccc(C(F)(F)F)cc3)c(/C=C/C(=O)O)n2)c1` (configuration not stated) returned a Ki of 14 nM.

Turning to `COc1ccc(CCCCCCCCOc2ccc(C[S+]([O-])c3ccccc3)nc2/C=C/C(=O)O)cc1` (configuration not stated), the Ki was 37 nM. The same measure, in the same setting: in the case of `COc1ccc(CCCCCCCCOc2ccc(CSc3cccc(N)c3)nc2/C=C/C(=O)O)cc1` it was 34 nM; in that of `COc1ccc(CCCCCCCCOc2ccc(C[S+]([O-])c3cccc(OC)c3)nc2/C=C/C(=O)O)cc1` (configuration not stated), 232 nM. Regarding `COc1ccc(CCCCCCCCOc2ccc(CS(=O)(=O)c3cccc(N)c3)nc2/C=C/C(=O)O)cc1`, affinity was put at a Ki of 36 nM.

`COc1ccc(CCCCCCCCOc2ccc(CSc3cccc(C(=O)O)c3)nc2/C=C/C(=O)O)cc1` gave a Ki of 80 nM. Still for that read-out and setting: the figure for `COc1ccc(CCCCCCOc2ccc(CC(O)c3cccc(C(=O)O)c3)nc2/C=C/C(=O)O)cc1` (configuration not stated) is 165 nM; for `COc1ccc(CCCCCCCCOc2ccc(CSc3cccc(NS(=O)(=O)C(F)(F)F)c3)nc2/C=C/C(=O)O)cc1` it is 284 nM.

`COc1ccc(CCCCCCCCOc2ccc(CSc3ccccc3)nc2/C=C/C(=O)O)cc1` gave an inhibition constant Ki of 74 nM.

With `COc1ccc(CCCCCCCCOc2ccc(C[S+]([O-])c3cccc(NS(=O)(=O)c4ccccc4)c3)nc2/C=C/C(=O)O)cc1` (configuration not stated), the Ki worked out at 147 nM. On the same count and under the same terms, the figure for `COc1ccc(CCCCCCCCOc2ccc(C[S+]([O-])c3cccc(N(C)C)c3)nc2/C=C/C(=O)O)cc1` (configuration not stated) is 245 nM; for `CCCCCCCCCCCCOc1ccc(CS(=O)(=O)c2cccc(C(=O)O)c2)nc1/C=C/C(=O)O` it is 148 nM; for `CCCCCCCCCCOc1ccc(CC(O)c2cccc(C(=O)O)c2)nc1CCC(=O)O` (configuration not stated) it is 429 nM. Consider `COc1ccc(CCCCCCCCOc2ccc(C[S+]([O-])c3cccc(C(=O)O)c3)nc2/C=C/C(=O)O)cc1` (configuration not stated), for which the Ki amounted to 151 nM.

`CCCCCCCCCCCCOc1ccc(C[S+]([O-])c2ccccc2C(=O)O)nc1/C=C/C(=O)O` (configuration not stated) came in with a Ki of 478 nM. `Nc1cccc([S+]([O-])Cc2ccc(OCCCCCCCCc3ccc(F)cc3)c(/C=C/C(=O)O)n2)c1` (configuration not stated) displayed a Ki of 12 nM. The compound `COc1ccc(CCCCCCCCOc2ccc(CSc3cccc(NC(=O)C(=O)O)c3)nc2/C=C/C(=O)O)cc1` returned a Ki of 72 nM.
